Results as given in patent EP0494622A1, “Bridged cyclic ketal derivatives” (priority 1991, dated 1992).
In brackets after ≈: the same amount, converted by molar mass. Structures can show the parent of a compound that is named as a salt.

What was measured:
squalene synthase = biological target: T1, squalene synthase (Rattus norvegicus, UniProt Q02769); experiment: Inhibition of squalene synthase in rat liver homogenate with [2-14C]farnesylpyrophosphate as substrate; [14C]squalene separated by TLC and counted by liquid scintillation; type: biochemical; conditions: concentration giving 50% inhibition of [14C]squalene production in a 30 minute assay, read-out: IC₅₀
T1 construct: from tissue; host or cells: rat liver homogenate
T1 sequence (Q02769 1-416): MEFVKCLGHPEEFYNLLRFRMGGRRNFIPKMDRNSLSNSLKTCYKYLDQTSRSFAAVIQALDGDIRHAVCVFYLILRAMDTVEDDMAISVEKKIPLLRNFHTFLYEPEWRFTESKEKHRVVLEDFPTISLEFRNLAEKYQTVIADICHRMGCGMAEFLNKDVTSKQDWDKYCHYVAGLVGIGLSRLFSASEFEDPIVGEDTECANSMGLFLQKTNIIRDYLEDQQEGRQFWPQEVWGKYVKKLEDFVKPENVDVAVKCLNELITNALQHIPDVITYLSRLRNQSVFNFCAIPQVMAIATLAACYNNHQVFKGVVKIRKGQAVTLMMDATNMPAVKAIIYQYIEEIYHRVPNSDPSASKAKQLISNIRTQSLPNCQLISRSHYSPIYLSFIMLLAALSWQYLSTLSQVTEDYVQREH
Procedure: Acta, Volume 877, 50-60 (1986) and modified to include measurement of cholesterol by high performance liquid chromatography (h.p.l.c.).
(§1) [¹⁴C] Squalene was separated from unreacted substrate on thin layer chromatography plates and determined by liquid scintillation counting. Inhibition of squalene synthase was quantified by incubating rat liver homogenate with various concentrations of the test compound in the presence of[2-¹⁴C] farnesylpyrophosphate. The concentration of compound giving 50% inhibition of [¹⁴C] squalene production in a 30 minute assay was taken as the IC₅₀ value. […] In practice, a series of agar plates, each having the test compound incorporated at a particular concentration, was inoculated with a standard culture of a clinically relevant pathogen, for example Candida albicans, and each plate was then incubated at 37 °C for 24 to 48 hours depending on the pathogen. The plates were then examined for the presence or absence of growth of the fungus and the appropriate MIC was noted. In this test the title compounds in Examples 19, Example 3 Compound 1 and Example 7 Compound 1 had MICs in the range of 1 to 31 µg/ml against a variety of clinically relevant pathogens.

[1] = system: a variety of clinically relevant pathogens; experiment: In vitro antifungal activity: minimum inhibitory concentration (MIC) on agar plates containing the test compound; type: cell-based; conditions: Candida albicans, read-out: MICs
Procedure: as §1, with “The in vitro evaluation of the anti-fungal activity of compounds of the invention can be performed by determining the minimum inhibitory concentration (MIC) which is the concentration of the test compound in a suitable medium at which growth of a particular microorganism fails to occur. […] A. […] [¹⁴C] Squalene” for “[¹⁴C] Squalene”, “was noted.” for “was noted. In this test the title compounds in Examples 19, Example 3 Compound 1 and Example 7 Compound 1 had MICs in the range of 1 to 31 µg/ml against a variety of clinically relevant pathogens.”

SMILES | IC50 (squalene synthase) [nM] | MIC [1] [µg/mL]
C=C(CC[C@]12O[C@H](CO)[C@@](O)(C(=O)O)[C@](C(=O)O)(O1)[C@H](OC(=O)CC[C@@H](C)C[C@@H](C)CC)[C@H]2O)[C@@H](OC(C)=O)[C@H](C)Cc1ccccc1 (relative stereo) [Example 10, [1S-[1α(4R*,5S*),3α,4β,5α,6α(4S*,6R*),7β]] 1-(4-Acetyloxy-5-methyl-3-methylene-6-phenylhexyl)-3-hydroxymethyl-4,6,7-trihydroxy-2,8-dioxabicyclo[3.2.1]octane-4,5-dicarboxylic acid, 6-(4,6-dimethyloctanoate), dipotassium salt] | < 100 | –
C=C(CC[C@]12O[C@H](CO)[C@@](O)(C(=O)O)[C@](C(=O)O)(O1)[C@H](OC(=O)/C=C/[C@@H](C)C[C@@H](C)CC)[C@H]2O)[C@@H](O)[C@H](C)Cc1ccccc1 (relative stereo) [Example 11, [1S-[1α(4R*,5S*),3α,4β,5α,6α(2E,4R*,6R*),7β]] 1-(4-Hydroxy-5-methyl-3-methylene-6-phenylhexyl)-3-hydroxymethyl-4,6,7-trihydroxy-2,8-dioxabicyclo[3.2.1]octane-4,5-dicarboxylic acid, 6-(4,6-dimethyl-2-octenoate)] | < 100 | –
C=C(CC[C@]12O[C@H](CO)[C@@](O)(C(=O)O)[C@](C(=O)O)(O1)[C@H](OC(=O)CC[C@@H](C)C[C@@H](C)CC)[C@H]2O)[C@@H](O)[C@H](C)Cc1ccccc1 (relative stereo) [Example 25, [1S-[1α(4R*,5S*),3α,4β,5α,6α(4S*,6R*),7β]] 1-(4-Hydroxy-5-methyl-3-methylene-6-phenylhexyl)-3-hydroxymethyl-4,6,7-trihydroxy-2,8-dioxabicyclo[3.2.1]octane-4,5-dicarboxylic acid, 6-(4,6-dimethyloctanoate)] | < 100 | –
C=C(CC[C@]12OC[C@@](O)(C(=O)OC)[C@](C(=O)O)(O1)[C@H](OC(=O)/C=C/[C@@H](C)C[C@@H](C)CC)[C@H]2O)[C@@H](OC(C)=O)[C@H](C)Cc1ccccc1 (relative stereo) [Example 3 Compound 2, [1S-[1α(4R*,5S*),4β,5α,6α(2E,4R*,6R*),7β]] 1-(4-acetyloxy-5-methyl-3-methylene-6-phenylhexyl)-4,6,7-trihydroxy-2,8-dioxabicyclo[3.2.1]octane-4,5-dicarboxylic acid, 6-(4,6-dimethyl-2-octenoate), 4-methyl ester] | < 100 | –
C=C(CC[C@]12OC[C@@](O)(C(=O)O)[C@](C(=O)O)(O1)[C@H](OC(=O)/C=C/[C@@H](C)C[C@@H](C)CC)[C@H]2O)[C@@H](OC(C)=O)[C@H](C)Cc1ccccc1 (relative stereo) [Example 3 Compound 1, [1S-[1α(4R*,5S*),4β,5α,6α(2E,4R*,6R*),7β]] 1-(4-Acetyloxy-5-methyl-3-methylene-6-phenylhexyl)-4,6,7-trihydroxy-2,8-dioxabicyclo [3.2.1]octane-4,5-dicarboxylic acid, 6-(4,6-dimethyl-2-octenoate)] | < 100 | 1 to 31 (≈ 1.55 to 47.9 µM)
C=C(CC[C@]12O[C@H](CO)[C@@](O)(C(=O)O)[C@](C(=O)O)(O1)[C@H](OC(=O)/C=C/[C@@H](C)C[C@@H](C)CC)[C@H]2O)[C@@H](OC(C)=O)[C@H](C)Cc1ccccc1 (relative stereo) [Example 7 Compound 1, [1S-[1α(4R*,5S*),3α,4β,5α,6α(2E,4R*,6R*),7β]] 1-(4-Acetyloxy-5-methyl-3-methylene-6-phenylhexyl)-3-hydroxymethyl-4,6,7-trihydroxy-2,8-dioxabicyclo[3.2.1]octane-4,5-dicarboxylic acid, 6-(4,6-dimethyl-2-octenoate)] | < 100 | 1 to 31 (≈ 1.48 to 45.8 µM)
C=C(CC[C@]12O[C@H](CO)[C@@](O)(C(=O)OC)[C@](C(=O)O)(O1)[C@H](OC(=O)/C=C/[C@@H](C)C[C@@H](C)CC)[C@H]2O)[C@@H](OC(C)=O)[C@H](C)Cc1ccccc1 (relative stereo) [Example 7 Compound 2, [1S-[1α(4R*,5S*),3α,4β,5α,6α(2E,4R*,6R*),7β]] 1-(4-acetyloxy-5-methyl-3-methylene-6-phenylhexyl)-3-hydroxymethyl-4,6,7-trihydroxy-2,8-dioxabicyclo[3.2.1]octane-4,5-dicarboxylic acid, 6-(4,6-dimethyl-2-octenoate),4-methyl ester] | < 100 | –
